From patent US7498319B2, “Phosphinic acid derivatives” (Novartis AG, priority 2003, dated 2009) come the findings set out here.

Structures can show the parent of a compound that is named as a salt.

Data set [1] deals with "epilepsy-like" discharges of pyramidal cells. Put plainly: penicillin-induced "epileptic" hippocampus section preparation (electrophysiology). To be noted: in vitro; concentration of 6 μM.

Take `COc1cc(CNC[C@H](O)CP(=O)(O)CC2CCCCC2)ccn1` (as salt: hydrochloride) [Example 2, {3-[(2-methoxy-4-pyridylmethyl)-amino]-2-(S)-hydroxy-propyl}-(cyclohexylmethyl)-phosphinic acid]: the melting point (usually the temperature, or range, at which the solid turns liquid) was 159 to 160 °C.
Same read-out and setting: in the case of `O=c1cc(CNC[C@H](O)CP(=O)(O)Cc2ccccc2)cc[nH]1` (as salt: hydrochloride) [Example 10, {2-(S)-hydroxy-3-[(2-oxo-1,2-dihydro-pyridin-4-ylmethyl)-amino]-propyl}-(benzyl)-phosphinic acid] it was 226 to 228 °C; in that of `COc1cc(CNC[C@H](O)CP(=O)(O)Cc2ccccc2)ccn1` [Example 4, {3-[(2-methoxy-4-pyridylmethyl)-amino]-2-(S)-hydroxy-propyl}-(benzyl)phosphinic acid], 192 to 195 °C.
As to `NCC(CC(=O)O)c1ccc(Cl)cc1` (stereo not shown) [baclofen], in data set [1], the “effect on "epilepsy-like" discharges of pyramidal cells” value is listed as “inhibits”.
